Patent US20110183942A1, “Methods and Compositions for Treating Alzheimer's Disease” (UNIVERSITY OF MEDICINE AND DENTISTRY OF NEW JERSEY, priority 2008, published 2011)
Where “and” joins values, the source holds several entries; their conditions need not be identical. Equal values may be shown once. Entries after “also recorded” stand apart in the source; their conditions may differ. Read-outs that look alike come from different tables or passages of the source. *1 amine or outer side, *2 acyl side, *3 side chain or, on linkers, in order; H or OH if unused. Where a SMILES comes first, the peptide text is derived from it. Bridges are numbered along the chain shown (N, C = ends). Roman numbers before positions name the chains, in order. Where no end group is shown, it is not given here. [ ]: non-standard residue; d: D form. The star is where a group is joined. Actinocin(9to1) = Cc1c2oc3c(C)ccc(C(=O)[*:1])c3nc-2c(C(=O)[*:2])c(N)c1=O; NMeV = CN[C@H](C(=O)O)C(C)C; Cbz = O=C(OCc1ccccc1)*; Sar = CNCC(=O)O

Assays:
eEF2K = eEF2K (Homo sapiens, UniProt O00418); assay: eEF2K activity in vitro; format: biochemical
[1] = tested on: Arc protein in DIV14 hippocampal neurons; assay: Arc immunocytochemistry in cultured hippocampal neurons; format: cell-based, mouse; conditions: emetine 10 ng/ml, 10 min
Method: Immunocytochemistry of cultured neurons was performed as described (Shepherd et al., Neuron, 52, 475-484 (2006)). Briefly, DIV14 primary hippocampal neurons were fixed in fixation solution (4% paraformaldehyde, 4% sucrose containing 1× PBS) for 20 min at 4° C. and were permeabilized with 0.2% Triton X-100 in PBS for 10 min 4° C. Cells were then blocked for 1 hr at room temperature in 10% normal goat serum (NGS). Primary antibodies were diluted (1:250 of phospho-eEF2 antibody, 1:500 of PSD95, 1:300 for Arc) in 10% NGS and incubated with neurons for overnight at 4° C. Alexa 488, or Alexa 555-conjugated secondary antibodies (1:500; Molecular Probes) were diluted in 10% NGS and incubated at room temperature for 1 hr. Coverslips were mounted with PermaFluor containing DAPI (Invitrogen). All images were taken with same exposure and setting using Zeiss 510 Meta confocal microscope. Quantification of Arc levels was carried out using Image J software. For the measurement of dendritic Arc levels, average pixel intensity was measured in the primary dendrites 20 μm away from the soma.

[2] = tested on: Arc protein in DIV14 forebrain neurons; assay: Western blot of Arc protein in cultured forebrain neurons; format: cell-based, mouse; conditions: for level of Arc protein, low dose cycloheximide: 10 min; for level of Arc protein after BDNF: BDNF 10 ng/ml
Method: For biochemistry experiments, 0.4×10^6 neurons were added to each well of a 6-well plate (Coming) coated with poly-L-lysine. Growth medium consisted of NeuroBasal (Invitrogen) supplemented with 1% fetal bovine serum (Hyclone), 2% B27, 1% Glutamax (Invitrogen), 100 U/mL penicillin, and 100 U/mL streptomycin (Invitrogen). Neurons were fed twice per week with glia conditioned growth medium.
Transfected HEK293T cells or cultured neurons were treated with various drugs and then harvested in IP buffer supplemented with 1% Triton X-100 buffer and Complete™ EDTA-Free protease inhibitors. Soluble fractions were diluted with 4× SDS sample buffer.
The membrane was blocked with TBST (50 mM Tris, pH 7.5, with 150 mM NaCl, and 0.1% Tween-20) containing 5% non-fat milk for one hour at room temperature, followed by incubation with primary antibody in TBST buffer overnight at 4° C. After three washes with TBST buffer, membranes were incubated with HRP-conjugated anti-rabbit, or anti-mouse antibody in TBST for another hour. After three washes with TBST buffer, the membrane was treated with SuperSignal ECL substrate (Pierce) according to the manufacturer's protocol.
To reduce the background signal in the co-IP assay, HRP-conjugated HA or HPR conjugated myc antibody (Santa Cruz) was used when overexpressed proteins were tagged with HA or myc. […] Image J software (NIH) was used for quantification.

eEF2 kinase = target: T1, eEF2 kinase (Homo sapiens, UniProt O00418); assay: Peptide substrate phosphorylation by eEF2 kinase; format: biochemical
T1 construct: made in house; host or cells: E. coli
Description: While alpha-kinase phosphorylation sites are typically found within alpha-helicies of peptide substrates, it was unknown for eEF2K if alpha-kinases recognized target substrates based on a specific primary peptide sequence around the phosphorylation site of eEF2K, or whether the alpha-helical secondary structure is responsible for the phosphorylation by alpha-kinases. To clarify this an arrayed peptide library screen was used (Turk, Yale Med. Sch. Dept. Pharmacol.) that thoroughly evaluated for specific kinase preference all 20 amino acids at each of nine positions neighboring the phosphorylation site.
Every peptide comprising this library contained a central fixed phosphorylation site where equimolar quantities of threonine and serine were introduced; each peptide also contained a carboxy-terminal biotin label. […]
Reactions in this screen were run for a given incubation time and then spotted simultaneously on a streptavidin membrane through use of a high throughput capillary-based liquid transfer device. Submersion of the membrane in a specified quenching solution stripped away unincorporated ATP and then radiolabeled-ATP incorporation was measured using a phosphoimager. […]

[3] = tested on: global protein synthesis in cultured neurons; assay: Metabolic labeling, incorporation of 35S methionine and cysteine into TCA precipitant; format: cell-based; conditions: 100 nM cycloheximide
Method: To measure the incorporation of ^35S methionine and cysteine into new peptide, 30 μl protein labeling mix (Perkin Elmer) was added into 1.5 ml of regular culture medium (final 220 μCi/ml) for the time indicated in the figures. After washout once with ice-cold PBS, cells were lysed with 700 μl of RIPA buffer. After quantification of total amount of protein, equal amount of lysate (˜200 μl) was precipitated with 10% TCA.

[4] = tested on: hippocampal Schaffer collateral-CA1 synapses; assay: Field recording of fEPSP (mGluR-LTD) in acute hippocampal slices; format: cell-based, mouse; conditions: for DHPG-LTD in the presence of high dose cycloheximide: cycloheximide 60 μM, t=105 min
Method: For recording, slices were placed in a submersion recording chamber and perfused with 30° C. ACSF at a rate of 2 ml/min.
fEPSPs were recorded with extracellular recording electrodes (1.0 MΩ) filled with ACSF and placed in the stratum radiatum of area CA1. Synaptic responses were evoked by a 200-μsec current pulse to Schaffer collateral axons with a concentric bipolar tungsten stimulating electrode. Stable baseline responses were collected every 30 sec by using a stimulation intensity (10-30 μA) yielding 50-60% of the maximal fEPSP slope response.
mGluR-LTD was induced by a mGluR1/5 agonist, (R,S)-3,5-DHPG (Tocris), or by electrical stimulations. […] NMDAR dependent-LTD was induced by using 900 single pulses delivered at 1 Hz.

[5] = tested on: surface AMPA receptor (GluR2/3, GluR1) in cultured neurons; assay: Surface biotinylation assay of AMPA receptor subunits; format: cell-based, mouse
Method: For surface biotinylation, drug-treated cortical neurons were cooled on ice, washed twice with ice-cold PBS++ (1× PBS, 1 mM CaCl2, 0.5 mM MgCl2) and then incubated with PBS++ containing 1 mg/ml Sulfo-NHS-SSBiotin (Pierce) for 30 min at 4° C. Unreacted biotin was quenched by washing cells three times with PBS++ containing 100 mM Glycine (pH 7.4) (briefly once and for 5 min twice). Cultures were harvested in RIPA buffer and sonicated. Homogenates were centrifuged at […] for 20 min at 4° C. Fifteen % of supernatant was saved as the total protein. […] Precipitates were washed with RIPA buffer three times (5 min each time). All procedures were done at 4° C.

[6] = tested on: Arc mRNA in cultured neurons; assay: Real-time RT-PCR of Arc mRNA; format: cell-based; conditions: BDNF 10 ng/ml at 40 min; forskolin 50 μM at 20 min; DHPG at 20 and 40 min after stimulation
Method: RNA samples from neuronal cultures were prepared using the PARIS kit (Ambion) according to the manufacturer's protocol. Following RNA extraction, samples were treated with DNase to remove contaminating DNA prior to cDNA synthesis. Total RNA was reverse transcribed using the SuperScript II First Strand Synthesis System for RT-PCR (Invitrogen) according to the manufacturer's protocol. A negative control without reverse transcriptase was included.
Primer specificity was verified by melt curve analysis. PCR amplification of cDNA was performed using the BioRad iCycler Real-Time Detection System (BioRad Laboratories). cDNA (1 μl) was added to 24 μl of 1× reaction master mix (3 mM MgCl2, KCl, Tris-HCl, iTaq DNA polymerase, 25 units/ml SYBR Green 1, 0.2 mM each dNTPs, 10 nM fluorescein and 500 nM each gene specific primers). […]
GAPDH was used to normalize data. The threshold for detection of PCR product above background was set at 10× the standard deviation of the mean background fluorescence for all reactions. Background fluorescence was determined from cycles 1-5 prior to the exponential amplification of product and subtracted from the raw fluorescence of each reaction/cycle. […] Threshold cycle (CT; number of cycles to reach threshold of detection) was determined for each reaction.
Relative gene expression was determined using the 2^−ΔΔCT method (Livak, et al., Methods 25, 402-408 (2001)). […]

Molecule: CCCCCCCCCCCCC/C=C/[C@@H](O)[C@@H](N)COP(=O)(O)O [Sphingosine-1-phosphate, sphingosine-1-phosphate]
- inhibition of eEF2K activity in vitro (eEF2K): inhibit eEF2K activity
- inhibition of eEF2K activity in vitro (eEF2K; listed as sphingosine-1-phosphate): inhibitor of eEF2 kinase

Molecule: CC[C@H]1CN2CCc3cc(OC)c(OC)cc3[C@@H]2C[C@@H]1C[C@H]1NCCc2cc(OC)c(OC)cc21 [emetine]
- effect on rapid DHPG-induced increase of Arc (immunocytochemistry) [1]: blocked

Molecule: CC(C)C[C@@H](C=O)NC(=O)[C@H](CC(C)C)NC(=O)[C@H](CC(C)C)NC(=O)OCc1ccccc1 [MG132] (Cbz-Leu-Leu-Leu-aldehyde)
- level of Arc protein with proteasome inhibitor ([2]; MG132 10 μM, 1 hr): increased the basal level of Arc protein; also recorded: increased the levels of Arc

Molecule: Cc1c2oc3c(C)ccc(C(=O)N[C@@H]4C(=O)N[C@H](C(C)C)C(=O)N5CCC[C@H]5C(=O)N(C)CC(=O)N(C)[C@@H](C(C)C)C(=O)O[C@@H]4C)c3nc-2c(C(=O)N[C@@H]2C(=O)N[C@H](C(C)C)C(=O)N3CCC[C@H]3C(=O)N(C)CC(=O)N(C)[C@@H](C(C)C)C(=O)O[C@@H]2C)c(N)c1=O [Actinomycin D] (I: T[dV]P[Sar][NMeV] / II: T[dV]P[Sar][NMeV]; ester I:1-I:C, II:1-II:C; linker I:N-II:N via Actinocin(9to1))
- effect on induction of Arc protein by DHPG (5 min) [2]: did not alter; also recorded: did not block
- basal levels of Arc with transcription inhibitor ([2]; ActD 10 μM, 1 hr): decreased the basal levels of Arc

Molecule: Ac-RKKYKFNEDTERRRFL [eEF2p]
- efficiency as substrate compared with the MH-U peptide (eEF2 kinase): two orders of magnitude more efficient

Molecule: C[C@@H]1C[C@@H]([C@H](O)CC2CC(=O)NC(=O)C2)C(=O)[C@@H](C)C1 [cycloheximide]
- total incorporation of 35S labeled methionine and cysteine into TCA precipitant [3]: ~60%
- effect on induction of Arc protein by DHPG (5 min) [2]: blocked
- induction of Arc, high dose cycloheximide ([2]; >1 uM, WT and eEF2K KO neurons): did not induce Arc
- level of Arc protein, low dose cycloheximide ([2]; WT neurons, low dose (50-100 nM)): increased Arc protein
- level of Arc protein, low dose cycloheximide ([2]; WT neurons, low dose (50-100 nM), listed as CHX): increased the level of Arc protein
- level of Arc protein, low dose cycloheximide ([2]; eEF2K KO neurons, 50 nM and 100 nM): increased the level of Arc protein
- fEPSP slope, low dose cycloheximide + DHPG [4]: 75.7±7.4 % of baseline and 69.0±2.6 % of baseline
- DHPG-LTD in the presence of high dose cycloheximide ([4]; Fmr1 KO slices): 72.3±4.8 % of baseline
- DHPG-LTD in the presence of high dose cycloheximide ([4]; WT (FVB) slices): 95.5±2.9 % of baseline
- baseline synaptic transmission, low dose cycloheximide without mGluR stimulation ([4]; WT slices): 101.2±2.0%
- baseline synaptic transmission, low dose cycloheximide without mGluR stimulation ([4]; eEF2K KO slices): 100.4±4.6%

Molecule: NC1=N[C@H](O)[C@H]2[C@H]3O[C@]4(O)O[C@@H]([C@@H](O)[C@@]2(N1)[C@@H]4O)[C@]3(O)CO [TTX, tetrodotoxin]
- surface expression of GluR1 [5]: increased the surface expression of GluR1

B1: BDNF: BDNF, applied at 10 ng/ml to neurons (protein, UniProt P23560 19-247, looked up)
Neurotrophic factor BDNF …: APMKEANIRGQGGLAYPGVRTHGTLESVNGPKAGSRGLTSLADTFEHVIEELLDEDQKVRPNEENNKDADLYTSRVMLSSQVPLEPPLLFLLEEYKNYLDAANMSMRVRRHSDPARRGELSVCDSISEWVTAADKKTAVDMSGGTVTVLEKVPVSKGQLKQYFYETKCNPMGYTKEGCRGIDKRHWNSQCRTTQSYVRALTMDSKKRIGWRFIRIDTSCVCTLTIKRGR
- level of Arc mRNA [6]: induced the level of Arc mRNA
- level of Arc protein after BDNF ([2]; 40 min after treatment): increased Arc protein expression; also recorded: increased the level of Arc protein
- level of Arc protein after BDNF ([2]; after 5 min): no change
